Measured values reported in PubChem BioAssay AID1963858 (Molecular Pharmacology Branch, DTP, NCI, 2024).
pIC50: −log10 of the molar value.

Tested on: HOP-62 multicell spheroids with HUVEC/MSC, viability
Test: Anticancer human tumor HOP-62 cell line growth inhibition [KRAS2];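 note: viability read after a week of compound exposure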;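 for viability, T/C: 100% = DMSO vehicle-treated spheroids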
Details: for pIC50: curve of first compound; for viability, T/C: stronger effect = lower value
Description: Multicellular complex tumor spheroid response to RAS pathway inhibitors in combination with a targeted agents in patient-derived cell lines with oncogenic KRAS variants from multiple cancer types
A high-throughput screen of multi-cell type tumor spheroids was designed to identify active combinations of targeted small molecules and KRAS pathway inhibitors. Complex spheroids include a stromal component modeled by human endothelial cells (HUVEC) and fibroblasts modeled by human mesenchymal stem cells (MSCs). The concentration ranges selected for each drug and investigational agent were based upon clinically achievable concentrations if the clinical Cmax of the agent was known.
Compounds. The drugs and investigational agents: BI-3406 (NSC825286), BAY-293 (NSC824723), batoprotafib (TNO155; NSC825523), sotorasib (AMG 510; NSC818433), MRTX1257 (NSC819558), elimusertib (BAY 1895344; NSC800525), molibresib (GSK525762; NSC774829), temuterkib (LY3214996; NSC803410), venetoclax (NSC766270), alisertib (NSC759677), olaparib (NSC753686), talazoparib (NSC767125), erdafitinib (NSC781556), ipatasertib (NSC767898), cabozantinib (NSC761068), nintedanib (NSC756659), abemaciclib (NSC768073), docetaxel (NSC628503), trametinib (NSC758246), and sapanisertib (NSC764658) were obtained from the National Cancer Institute (NCI) Developmental Therapeutics Program Chemical Repository. The FDA-approved anticancer drug set is available from the Developmental Therapeutics Program. […] The stock solutions were prepared in dimethyl sulfoxide (DMSO, Sigma-Aldrich, St. Louis, MO, cat. D2650) at 800-fold the tested concentration and stored at -70 degrees C prior to their use. All drugs and investigational agents were tested over a range starting from a high concentration at or near the clinical Cmax and decreasing in half-log increments. If the clinical Cmax for an agent had not been determined, the highest concentration tested was 10 microM.
Cell Culture. All cells were maintained in an incubator at 37 degrees C and 5% CO2 with 95% humidity. The PDC lines were cultured according to standard operating procedures established by the NCI PDMR (https://pdmr.cancer.gov/sops/default.htm). Briefly, all PDCs were thawed and cultured in Matrigel-coated flasks prepared with a working solution of 1X Ham's F-12 nutrient mix, without supplementation (Invitrogen, Waltham, MA, cat. 11765054), 100 U/mL penicillin-streptomycin (Invitrogen, cat. 15140122), and 2.5% Matrigel (Corning Inc., Corning, NY, cat. 354248) for the first three passages. All PDCs were cultured in complete DMEM/F-12 media containing advanced DMEM/F-12 (Invitrogen, cat. 12634028), 4.9% defined fetal bovine serum, heat inactivated (HyClone Laboratories Inc., Logan, UT, cat. SH30070.03HI), 389 ng/mL hydrocortisone (Sigma-Aldrich, cat. H4001), 9.7 ng/mL human EGF recombinant protein (Invitrogen, cat. PHG0313), 23.4 microg/mL adenine (Sigma-Aldrich, cat. A2786), 97.3 U/mL penicillin-streptomycin (Invitrogen, cat. 15140122), 1.9 mM L-glutamine (Invitrogen, cat. 25030081), and 9.7 microM Y-27632 dihydrochloride (Tocris Bioscience, Bristol, United Kingdom, cat. 1254). The PDCs were cultured in complete DMEM/F12 media without 9.7 microM Y-27632 dihydrochloride for at least two passages prior to the screen. The established cell line HOP-62 was cultured in RPMI 1640 medium, HEPES (Invitrogen, cat. 22400105) with 10% defined fetal bovine serum (HyClone Laboratories Inc., cat. SH30070.03) and 2 mM L-glutamine (Invitrogen, cat. 25030081). The pooled donor HUVEC were cultured in endothelial cell growth medium 2 (PromoCell, Heidelberg, Germany, cat. C-22011) and the hMSC were cultured in mesenchymal stem cell growth medium 2 (PromoCell, cat. C-28009). For all experiments, HUVEC and hMSC were used at passages </=5, while the malignant cell lines were used at passages </=15. […]

[1] = second compound 0.1 µM, first compound 0.0316 µM
[2] = second compound 0.1 µM, first compound 0.1 µM
[3] = second compound 0.1 µM, first compound 0.316 µM
[4] = second compound 0.1 µM, first compound 1 µM
[5] = second compound 0.316 µM, first compound 0.0316 µM
[6] = second compound 0.316 µM, first compound 0.1 µM
[7] = second compound 0.316 µM, first compound 0.316 µM
[8] = second compound 0.316 µM, first compound 1 µM
[9] = second compound 1 µM, first compound 0.0316 µM
[10] = second compound 1 µM, first compound 0.1 µM
[11] = second compound 1 µM, first compound 0.316 µM
[12] = second compound 1 µM, first compound 1 µM
[13] = second compound 3.16 µM, first compound 0.0316 µM
[14] = second compound 3.16 µM, first compound 0.1 µM
[15] = second compound 3.16 µM, first compound 0.316 µM
[16] = second compound 3.16 µM, first compound 1 µM
[17] = second compound 10 µM, first compound 0.0316 µM
[18] = second compound 10 µM, first compound 0.1 µM
[19] = second compound 10 µM, first compound 0.316 µM
[20] = second compound 10 µM, first compound 1 µM

SMILES	pIC50 (second compound 0.1 µM)	pIC50 (second compound 0.316 µM)	pIC50 (second compound 1 µM)	pIC50 (second compound 3.16 µM)	pIC50 (second compound 10 µM)	viability, T/C [1]	viability, T/C [2]	viability, T/C [3]	viability, T/C [4]	viability, T/C [5]	viability, T/C [6]	viability, T/C [7]	viability, T/C [8]	viability, T/C [9]	viability, T/C [10]	viability, T/C [11]	viability, T/C [12]	viability, T/C [13]	viability, T/C [14]	viability, T/C [15]	other results
CC1OCC2(CCN(c3cnc(Sc4ccnc(N)c4Cl)c(N)n3)CC2)C1N (stereo not given) + COc1cc2nc(C)nc(NC(C)c3cc(N)cc(C(F)(F)F)c3)c2cc1OC1CCOC1	< 5.00	< 5.00	5.91	6.29	7.28	89.6%	88.9%	79.8%	66%	98.4%	96.1%	76.2%	68.9%	99.4%	77.9%	61.2%	53.6%	82%	73.8%	59.4%	viability, T/C (second compound 0.1 µM, first compound 3.16 µM): 59.5%; viability, T/C (second compound 0.1 µM, first compound 10 µM): 59.5%; viability, T/C (second compound 0.316 µM, first compound 3.16 µM): 55.5%; viability, T/C (second compound 0.316 µM, first compound 10 µM): 52.8%; viability, T/C (second compound 1 µM, first compound 3.16 µM): 41.8%; viability, T/C (second compound 1 µM, first compound 10 µM): 40.3%; viability, T/C [16]: 38.4%; viability, T/C (second compound 3.16 µM, first compound 3.16 µM): 25.7%; viability, T/C (second compound 3.16 µM, first compound 10 µM): 31.1%; viability, T/C [17]: 58%; viability, T/C [18]: 40.1%; viability, T/C [19]: 26.9%; viability, T/C [20]: 23.7%; viability, T/C (second compound 10 µM, first compound 3.16 µM): 20.3%; viability, T/C (second compound 10 µM, first compound 10 µM): 18.6%
CCN1CCN(Cc2ccc(Nc3ncc(F)c(-c4cc(F)c5nc(C)n(C(C)C)c5c4)n3)nc2)CC1 + COc1cc2nc(C)nc(NC(C)c3cc(N)cc(C(F)(F)F)c3)c2cc1OC1CCOC1	6.04	6.01	6.21	7.63	> 8.50	84.2%	79.4%	73.8%	45.6%	85.6%	69.9%	63.2%	49.2%	67.6%	69.9%	49.6%	47.8%	50.6%	41.8%	42.4%	viability, T/C (second compound 0.1 µM, first compound 0.00316 µM): 102%; viability, T/C (second compound 0.1 µM, first compound 0.01 µM): 97%; viability, T/C (second compound 0.316 µM, first compound 0.00316 µM): 101%; viability, T/C (second compound 0.316 µM, first compound 0.01 µM): 93.5%; viability, T/C (second compound 1 µM, first compound 0.00316 µM): 80.8%; viability, T/C (second compound 1 µM, first compound 0.01 µM): 74.4%; viability, T/C (second compound 3.16 µM, first compound 0.00316 µM): 55.5%; viability, T/C (second compound 3.16 µM, first compound 0.01 µM): 52.9%; viability, T/C [16]: 34.8%; viability, T/C (second compound 10 µM, first compound 0.00316 µM): 49.9%; viability, T/C (second compound 10 µM, first compound 0.01 µM): 32.2%; viability, T/C [17]: 24.4%; viability, T/C [18]: 21.9%; viability, T/C [19]: 18.5%; viability, T/C [20]: 0.89%
